Results reported in patent US20100040621A1, “Novel polpeptide and use thereof” (TAKEDA PHARMACEUTICAL COMPANY LIMITED, priority 2005, published 2010).
No end group written: not given here.

Assays:
posterior pituitary = test: AVP secretion in vitro, static incubation of posterior pituitary; assay type: cell-based; conditions: rat posterior pituitary in vitro, same conditions (10^−6 M)
Method: (§1) Blood samples were taken 15 minutes after the injection of NERPs. Plasma AVP was measured using an RIA kit (manufactured by Mitsubishi). Six pieces of PVN and SON were taken from the rat hypothalamus. Each nucleus was preincubated for an hour at 37° C. in medium 199 (25 mM HEPES buffer, pH 7.4, 2.5% fetal calf serum, 2.5% bovine serum and 1% penicillin-streptomycin) equilibrated under 95% O2 (n=4 wells/group). These nuclei were sequentially stimulated 3 times each for 5 minutes, using one of NERP-1 (10^−6 M), NERP-1 (10^−6 M)+AT-II (10^−6 M) and AT-II (10^−6 M). Stimulation periods were separated by 5-minute recovery periods. Similarly, these nuclei were stimulated using one of NERP-2 (10^−6 M), NERP-2 (10^−6 M)+AT-II (10^−6 M), NERP-1-Gly (10^−6 M) and NERP-2-Gly (10^−6 M). After they were thus stimulated, KCl of 6×10^−2 M was added to confirm depolarization-induced secretion. The two pieces from rat posterior pituitary were stimulated by NERPs and AT-II under the same conditions as described above. Aliquots of the medium were provided for RIA to measure AVP. The experiment was replicated 5 times.

PVN and SON = test: AVP secretion in vitro, static incubation of PVN and SON; assay type: cell-based; conditions: rat nuclei in vitro; for basal AVP secretion, static incubation of PVN and SON: peptide 10^−6 M; for AT-II-induced AVP secretion, static incubation of PVN and SON: peptide 10^−6 M + AT-II 10^−6 M
Method: as §1

SON neurons = assay type: cell-based, rat; conditions: for GABAergic IPSC in the SON neurons: holding potential −20 mV
AVP secretion = AVP secretion in vivo after ICV administration (plasma AVP by RIA); conditions: rat; for AT-II induced AVP release: ICV preadministration, AT-II (1 nmol/10 μl) ICV 5 minutes after, plasma AVP; for AVP release induced by high salt administration: ICV, hypertonic saline (850 mM NaCl/10 μl) ICV 5 minutes after, plasma AVP 15 minutes after injection
Method: NERP-1, NERP-1-Gly, NERP-2 or NERP-2-Gly was ICV-administered to rats, followed by ICV administration of hypertonic saline (850 mM NaCl/10 μl) or angiotensin II (AT-II) (1 nmol/10 μl) 5 minutes after.
as §1

free-feeding rats = test: Feeding experiments in rats after ICV injection; assay type: in vivo, rat
Method: (§2) To assess feeding, NERP-1, NERP-2 or NERP-2-Gly (0.1-5 nmol/10 μl) was ICV-injected to rats (n=15 per group) at 09:30. Anti-orexin A IgG (0.25 μg/10 μl, Santa Cruz) and anti-orexin B IgG (0.25 μg/10 μl, Santa Cruz) or anti-MCH IgG (0.5 μg/10 μl, Phoenix) was ICV-injected at 09:00 to rats (n=12 per group). In all cases, IgG was injected […] before the NERP-2 administration. Food intake was monitored for an hour. In mouse experiments, NERP-2 (1 nmol/2 μl saline) or MCH (1 nmol/2 μl saline) was ICV-injected to orexin knockout mice (Cell, 92, 573-585 (1998)) and wild-type littermates (n=5 per group, 4 month-old male), then one-hour food intake was measured. Orexin knockout mice were prepared by targeted mutation in ES cells (Cell, 92, 573-585 (1998)).

[1] = system: orexin knockout mice and wild-type mice; test: Locomotor stimulating activity in mice after ICV administration; assay type: in vivo, mouse; conditions: ICV 5 nmol/2 μl saline, counts summed 30 to 120 minutes after administration
Method: Movement of mice given an ICV administration of NERP-2 (5 nmol/2 μl saline) or vehicle was measured in sound- and light-proof cages equipped with an infrared detector (Muromachi Co. Ltd., Tokyo, Japan) as previously described according to the method described in Endocrinology, 144, 4729-4733 (2003). Locomotor activity counts were measured every 15 minutes and summed for the period of 30 minutes to 120 minutes after the administration.

[2] = system: orexin knockout mice and wild-type littermates; test: One-hour food intake in orexin knockout mice and wild-type littermates after ICV injection; assay type: in vivo, mouse; conditions: ICV 1 nmol/2 μl saline
Method: as §2

Substance: NERP-1: VGF-derived peptide; human, rat and mouse sequences are SEQ ID NO: 4, 5 and 6; rat form an amidated 25-amino acid peptide (RPESALLGGSEAGERLLQQGLAQVEA; Neuroendocrine regulatory peptide-1; UniProt O15240 281-306, looked up) [VGF-derived peptide; rat form an amidated 25-amino acid peptide]
- AVP secretion from the posterior pituitary (posterior pituitary): suppressed
- basal AVP secretion, static incubation of PVN and SON (PVN and SON): suppressed
- AT-II-induced AVP secretion, static incubation of PVN and SON (PVN and SON): suppressed
- IPSCs induced by NERP-1 on application of hemoglobin (Hb) (SON neurons; Hb 10^−6 M, NO scavenger, added 5 minutes after NERP-1): not affected
- presynaptic GABAergic currents induced by NERP-1 in presence of tetrodotoxin (SON neurons; TTX 10^−6 M, Na+ channel blocker, added 5 minutes after NERP-1): remained unchanged
- amplitude of IPSC (SON neurons; rat SON slice, patch-clamp): did not increase
- frequency of IPSC (SON neurons; rat SON slice, patch-clamp): increased
- GABAergic IPSC in the SON neurons (SON neurons; rat slice, patch-clamp): increased
- EPSC in the SON neurons (SON neurons; rat slice, patch-clamp, holding potential −70 mV): did not increase
- AT-II induced AVP release (AVP secretion): suppressed
- AVP release induced by high salt administration (AVP secretion): dose-dependently suppressed

Substance: NERP-2: VGF-derived peptide; human, rat and mouse sequences are SEQ ID NO: 7, 8 and 9; rat form an amidated 38-amino acid peptide (QAEATRQAAAQEERLADLASDLLLQYLLQGGARQRGLG; also: rat form amidated, species of this chain not given here; UniProt O15240 310-347, looked up) [VGF-derived peptide; rat form an amidated 38-amino acid peptide]
- food intake during the light phase (free-feeding rats; free-feeding rats, ICV 0.1-5 nmol/10 μl, one-hour intake): dose-dependently increased
- lowest effective dose for increased food intake (free-feeding rats; free-feeding rats, ICV, light phase): 0.1 nmol
- behavior compared to the control group (free-feeding rats; rats receiving ICV injection): remained alert and showed no unusual behavior
- duration of orexigenic effect after the ICV injection (free-feeding rats; rats, ICV): did not last longer than an hour
- total locomotor activity in the orexin knockout mice [1]: did not stimulate
- total locomotor activity in the wild-type mice [1]: stimulated
- basal AVP secretion, static incubation of PVN and SON (PVN and SON): suppressed
- AT-II-induced AVP secretion, static incubation of PVN and SON (PVN and SON): suppressed
- GABAergic IPSC in the SON neurons (SON neurons; rat slice, patch-clamp): increased
- food intake in orexin knockout mice [2]: did not stimulate
- food intake in wild-type control mice [2]: stimulated
- AT-II induced AVP release (AVP secretion): inhibited
- AVP release induced by high salt administration (AVP secretion): inhibited
